Source: BindingDB's records for doi:10.1021/cb0500042 (Suny Stony Brook, 2006)
pIC50, pKi: −log10 of the molar value.

Columns and labels:
[1] = biological target: T1, Enoyl-[acyl-carrier-protein] reductase [NADH] (Mycobacterium tuberculosis (strain ATCC 25618 / H37Rv), UniProt P9WGR1); assay: Enoyl-CoA Reductase Inhibition Assay; conditions: pH 6.8; 22 °C
T1 sequence (P9WGR1 whole entry): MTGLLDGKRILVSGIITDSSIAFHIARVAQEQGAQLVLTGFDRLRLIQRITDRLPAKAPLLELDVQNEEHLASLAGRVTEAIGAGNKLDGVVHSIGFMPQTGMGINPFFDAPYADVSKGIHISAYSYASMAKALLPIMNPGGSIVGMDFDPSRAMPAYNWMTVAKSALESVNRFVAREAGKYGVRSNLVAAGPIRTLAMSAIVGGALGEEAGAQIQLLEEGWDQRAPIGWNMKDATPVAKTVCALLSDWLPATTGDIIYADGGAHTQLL
Experimental: The assay measured the NADH-dependent catalysis of a DD-CoA substrate as a decrease in 340 nm absorbance resulting from conversion of NADH to NAD. The absorbance OD readings were taken on a microreader. The IC50 values were determined using at least eight concentrations, with each concentration assayed in triplicate under saturating substrate conditions. The values were calculated from plots of enzyme activity versus the log of the inhibitor concentration using the GraFit IC50 four-parameter fit software.

[2] = biological target: T1, Enoyl-[acyl-carrier-protein] reductase [NADH]; assay: Measurement of Inhibition Constants; conditions: pH 6.8; 22 °C
Experimental: Inhibition constants (Ki) were calculated by determining the kcat and Km (DDCoA) values at several fixed inhibitor concentrations. The inhibition data were analyzed using the standard equation for uncompetitive inhibition. For compounds with Ki values in the low nanomolar range, initial velocities were determined at a fixed substrate concentration and the data were fit to the equation: vi/v0 = (Km + S)/(Km + S[1 + I/ Ki]). Where vi and v0 are the initial velocities in the presence and absence of inhibitor. […] Data fitting was performed using Grafit 4.0 (Erithacus Software Ltd.).

SMILES: CCCCCCCCCCCCCCc1ccc(Oc2ccccc2)c(O)c1 [2-phenoxy-5-tetradecylphenol]
- pIC50 [1]: 6.82
- pKi [2]: 7.52

SMILES: CCCCCCCCc1ccc(Oc2ccccc2)c(O)c1 [5-Octyl-2-phenoxy-phenol]
- pKi [2]: 8.96

SMILES: CCCCCCc1ccc(Oc2ccccc2)c(O)c1 [5-hexyl-2-phenoxyphenol]
- pIC50 [1]: 7.96
- pKi [2]: 8.03

SMILES: CCCCCc1ccc(Oc2ccccc2)c(O)c1 [5-pentyl-2-phenoxylphenol]
- pKi [2]: 7.93

SMILES: NC(=O)C1=CN([C@@H]2O[C@H](CO[P@@](=O)(O)O[P@@](=O)(O)OC[C@H]3O[C@@H](n4cnc5c(N)ncnc54)[C@H](O)[C@@H]3O)[C@@H](O)[C@H]2O)C=C[C@@H]1C(=O)c1ccncc1 [[[(2R,3S,4R,5R)-5-(6-aminopurin-9-yl)-3,4-dihydroxy-oxolan-2-yl]methoxy-hydroxy-phosphoryl]oxy-[[(2R,3S,4R,5R)-5-[(4S)-3-carbamoyl-4-(pyridine-4-carbonyl)-4H-pyridin-1-yl]-3,4-dihydroxy-oxolan-2-yl]methoxy]phosphinic acid]
- pKi [2]: 9.12
